Results as given in patent US20110021621A1, “Drug for treating circulatory insufficiency” (ACTIVUS PHARMA CO., LTD., priority 2005, published 2011).
Where a name gives a salt, the structure may show the parent alone. Read-outs that look alike come from different tables or passages of the source.

Tests used:
[1] = test system: bleeding time in male SD rats; details: rat, in vivo, po
Experimental: (§1) 5-week-old male SD rats (body weight is 138 to 152 g), 6 rats per one group, were used. […] 50 minutes after the administration, 50 mg/kg of pentobarbital sodium was intraperitoneally injected into the rat.
(§2) 10 minutes later, the tail was cut off at a position of 2 mm from the tip using a surgical blade, and was immediately immersed into a glass container (Magnus bath) filled with physiological saline maintained at approximately 37° C. to observe until the rat stopped bleeding.
(§3) The bleeding time was taken as the time from the tail cutting to the cessation of bleeding. The tail was marked at a position of 5 cm from the tip in advance, and was immersed in the physiological saline in the glass container at the depth of 5 cm from the surface. The maximum observation time was defined as 60 minutes after the tail cutting.

[2] = test system: bleeding time in male SD rats; assay: Effect on bleeding time in rats (tail cutting); details: 30 mg/kg oral, max observation 60 min
Experimental: as §1, §2, §3

[3] = Stability test in acidic or basic solution (half-life by liquid chromatography); type: physicochemical; details: time to 50% residual rate; for Half-life, pH 3.4 solution: phosphate buffer pH 3.4; for Half-life, pH 3.4 solution / Half-life, pH 7.3 solution: 1 mmoL/L, 37° C.; for Half-life, pH 7.3 solution: phosphate buffer pH 7.3
Experimental: The test compounds were dissolved in an acidic solution (phosphate buffer (pH3.4)) and in a basic solution (phosphate buffer (pH7.3)) at the concentration of 1 mmoL/L. Immediately after they were dissolved, each solution was analyzed with liquid chromatography using an acidic solution (phosphate buffer (pH3.4)) or basic solution (phosphate buffer (pH7.3)) as an eluent. The peak area of the test compounds was measured as the initial value. Furthermore, a time-course analysis with liquid chromatograpy was conducted to measure the peak area at each time point. The solution containing the test compound was kept in an incubator at 37° C. Based on the measured peak area of the test compounds, the percentage (%) of the peak area at each measurement time point was calculated, taking the peak area of the initial value as 100(%). The half-life (the time to show a 50% residual rate of the test compounds) of the test compounds was further calculated, and its stability was evaluated based on the half-life.

[4] = test system: circulatory insufficiency model of rats induced by injection of lauric-acid into their femoral artery; assay: Circulatory insufficiency model induced by lauric-acid in rats (lesion index); type: in vivo, rat; design: key: summed toe lesion grades, +5 if heel reached; max 25 points; details: male Wistar rats, average, max 25 points
Experimental: We performed this test in order to evaluate the pharmacological effect of the compounds of the present invention using a circulatory insufficiency model of rats induced by injection of lauric-acid into their femoral artery.
13-week-old male Wistar rats (body weight is 280 to 316 g), 8 rats per one group, were used. The rats were held in a supine position under anesthesia due to administration of 40 mg/kg of sodium pentobarbital by intraperitoneal injection. Then, the right femoral area was incised, thereby injecting 0.15 mL of 10 mg/mL lauric-acid solution into the femoral artery in order to induce lower limb gangrene caused by the peripheral vascular disorder. A few drops of instant adhesive (Aron-alpha; registered trademark) were used to stop bleeding, followed by topical application of antibiotics (potassium penicillin G solution) to prevent infection, and the incision site was then sutured.
The suspension was administered, by means of multiple oral dosing, 1 hour prior to and 3 hours after injection of lauric-acid and twice daily (at 10:00 and 17:00) for the following 9 days, at the dose of 30 mg/kg for each compound. […] The suspension was administered orally 3 hours prior to injection of lauric-acid at the dose of 300 mg/kg.
The extent of lesions was evaluated 3 days and 10 days after injection of lauric acid by the following criteria:
The lesion of each toe was graded and the total points of 5 toes were use as a lesion index, wherein 5 points were further added when the lesion reached the heel (i.e. the maximum lesion index was 25 points).
The shown number refers to the average value of the lesion index obtained from the evaluation.

[5] = Bioabsorption: plasma concentration measurement in rats with oral administration; type: in vivo, rat; details: for concentration at 0.25 h: read-out: plasma concentration, Mean, time point 0.25 h; for concentration at 0.5 h: read-out: plasma concentration, Mean, time point 0.5 h; for concentration at 1 h: read-out: plasma concentration, Mean, time point 1.0 h; for concentration at 2 h: read-out: plasma concentration, Mean, time point 2.0 h; for concentration at 4 h: read-out: plasma concentration, Mean, time point 4.0 h; for concentration at 6 h: read-out: plasma concentration, Mean, time point 6.0 h; for concentration at 8 h: read-out: plasma concentration, Mean, time point 8.0 h; for AUC: read-out: AUC (area under the plasma concentration-time curve); for Cmax: read-out: Cmax (maximum plasma concentration); for Tmax: read-out: Tmax (time required to reach the maximum plasma concentration)
Experimental: We conducted a plasma concentration measurement in rats with oral administration to compare the absorption of the compound of the present invention (compound No. 451) with the comparative compound A and B.
6-week-old male SD rats (body weight is 200 to 230 g) were used for this test (3 rats per one group). The required amount of test compound was weighed and pulverized in an agate mortar. Then, a 0.5 (w/v) % methyl cellulose solution was added to prepare the suspension at the concentration of 10 mg/5 mL. 5 mL per kg body weight of the suspension was orally administered to rats once using a feeding tube for rats. About 0.3 mL of blood was sampled from the caudal vein using a heparinized glass tube at 0.25, 0.5, 1, 2, 4, 6, 8, 12 and 24 hours after the administration, and was centrifuged to obtain plasma.
30 μL of methanol and 300 µL of acetonitrile were added to 120 μL of the obtained plasma, and mixed with a Vortex mixer for 15 seconds. The sample was centrifuged to obtain 300 μL of the supernatant. The supernatant was dried, and 120 μL of an eluent was added thereto, and then mixed with a Vortex mixer for 15 seconds. After the mixture was centrifuged, the amount of each test compound remaining in the plasma was determined with liquid chromatography.
40 μL of the sample, as prepared above, was applied to liquid chromatography with the following conditions to conduct the measurement.
• Column: InertsiL (registered trademark) ODS-3 4.6 mmI.D.×250 mm; • Column temperature: 40° C.; • Eluent: Solution A (10 mmoL/L ammonium acetate:methanol=50:50), and Solution B (10 mmoL/L ammonium acetate:methanol=10:90); • Gradient condition (eluent composition): solution A→20 min.→solution B (5 min. elution)→1 min.→solution A (12 min. elution); • Flow rate: 1.0 mL; and • Detection wavelength: 314 nm.
• Column: InertsiL (registered trademark) ODS-3 4.6 mmI.D.×150 mm; • Column temperature: 40° C.; • Eluent: Solution A (aqua:methanol:acetic acid=90:10:0.5), and Solution B (aqua:methanol:acetic acid=10:90:0.5); • Gradient condition (eluent composition): solution A→20 min.→solution B (5 min. elution)→1 min.→solution A (12 min. elution); • Flow rate: 1.0 mL; and • Detection wavelength: 323 nm.
• Column: InertsiL (registered trademark) ODS-3 4.6 mmI.D.×150 mm; • Column temperature: 40° C.; • Eluent: Solution A (pH=2.2 phosphate buffer:acetonitrile=90:10), and Solution B (pH=2.2 phosphate buffer:acetonitrile=10:90); • Gradient condition (eluent composition): Solution A→10 min.→Solution B (2.5 min. elution)→0.5 min.→Solution A (9 min. elution); • Flow rate: 2.0 mL; and
Detection wavelength: 315nm.
Based on the peak area obtained in the liquid chromatography analysis with respect to 1 μg/mL of each test compound in plasma, the plasma concentration (μg/mL) at each time point was calculated.

[6] = 60 min between oral dosing and the tail cutting
[7] = 180 min between oral dosing and the tail cutting
[8] = 30 mg/kg multiple oral dosing (1 h prior to and 3 h after lauric-acid, then twice daily for 9 days), 10 days after lauric-acid injection
[9] = 30 mg/kg multiple oral dosing (1 h prior to and 3 h after lauric-acid, then twice daily), 3 days after lauric-acid injection
[10] = phosphate buffer pH 3.4, 37° C., read-out: Half-life, pH 3.4 solution (converted)
[11] = phosphate buffer pH 7.3, 37° C., read-out: Half-life, pH 7.3 solution (converted)
[12] = male, SD, rat, plasma, 10 mg/kg, 0.25 h
[13] = male, SD, rat, plasma, 10 mg/kg, 0.5 h
[14] = male, SD, rat, plasma, 10 mg/kg, 1.0 h
[15] = male, SD, rat, plasma, 10 mg/kg, 2.0 h
[16] = male, SD, rat, plasma, 10 mg/kg, 4.0 h
[17] = male, SD, rat, plasma, 10 mg/kg, 6.0 h
[18] = male, SD, rat, plasma, 10 mg/kg, 8.0 h
[19] = male, SD, rat, plasma, 10 mg/kg, from administration to 24 hours
[20] = male, SD, rat, plasma, 10 mg/kg

CC(=O)Oc1ccccc1C(=O)O [aspirin]
Bleeding time ([1]; 100 mg/kg, 60 min): 40.2 min

O=C1CCc2cc(OCCCCc3nnnn3C3CCCCC3)ccc2N1 [cilostazol]
Bleeding time ([1]; 300 mg/kg, 60 min): 50.1 min

CCCCCCCCOc1c(O)c2ccc(OCCC(=O)O)cc2oc1=O [Compound 525]
Bleeding time [2, 6]: 8.5 min
Bleeding time [2, 7]: 8.1 min
Half-life, pH 3.4 solution [3]: >>100 hr
Half-life, pH 7.3 solution [3]: >>100 hr
Lesion Index after 10 days [4, 8]: 7.8
Lesion Index after 3 days [4, 9]: 2.9

O=c1oc2ccc(Cl)cc2c(O)c1O [B]
half-life at 1 mmoL/L [3, 10]: 53 h
half-life at 1 mmoL/L [3, 11]: 70 h
concentration at 0.25 h [5, 12]: 7400 ng/mL
concentration at 0.5 h [5, 13]: 4100 ng/mL
concentration at 1 h [5, 14]: 2000 ng/mL
concentration at 2 h [5, 15]: 1400 ng/mL
concentration at 4 h [5, 16]: 300 ng/mL
concentration at 6 h [5, 17]: 100 ng/mL
concentration at 8 h [5, 18]: 100 ng/mL
concentration at 12 h ([5]; male, SD, rat, plasma, 10 mg/kg, 12.0 h, read-out: plasma concentration, Mean, time point 12.0 h): 0 ng/mL
concentration at 24 h ([5]; male, SD, rat, plasma, 10 mg/kg, 24.0 h, read-out: plasma concentration, Mean, time point 24.0 h): 0 ng/mL
AUC [5, 19]: 8300 ± 2600 ng·h/mL
Cmax [5, 20]: 7400 ± 200 ng/mL
Tmax [5, 20]: 0.25 h

CC#CCC(C)[C@H](O)/C=C/[C@@H]1[C@H]2c3cccc(CCCC(=O)O)c3O[C@H]2C[C@H]1O (mixture of isomers) [beraprost sodium]
Bleeding time ([1]; 1 mg/kg, 60 min): 42.2 min

CCCCCCOc1c(O)c2ccc(O)cc2oc1=O [Compound 125]
Bleeding time [2, 6]: 8.0 min
Bleeding time [2, 7]: 8.4 min
Half-life, pH 3.4 solution [3]: >>100 hr
Half-life, pH 7.3 solution [3]: >>100 hr
Lesion Index after 10 days [4, 8]: 8.1
Lesion Index after 3 days [4, 9]: 2.6

CCOc1c(O)c2ccc(OC)cc2oc1=O [Compound 144]
Bleeding time [2, 6]: 8.9 min
Bleeding time [2, 7]: 8.2 min
Lesion Index after 10 days [4, 8]: 7.2
Lesion Index after 3 days [4, 9]: 2.5

O=c1oc2ccccc2c(O)c1O [comparative compound A]
half-life at 1 mmoL/L [3, 10]: 30 h
half-life at 1 mmoL/L [3, 11]: 65 h
plasma concentration, Mean, time point 12.0 h ([5]; 12.0 h): Not detected
plasma concentration, Mean, time point 24.0 h ([5]; 24.0 h): Not detected
concentration at 0.25 h [5, 12]: 600 ng/mL
concentration at 0.5 h [5, 13]: 300 ng/mL
concentration at 1 h [5, 14]: 300 ng/mL
concentration at 2 h [5, 15]: 300 ng/mL
concentration at 4 h [5, 16]: 300 ng/mL
concentration at 6 h [5, 17]: 300 ng/mL
concentration at 8 h [5, 18]: 200 ng/mL
AUC [5, 19]: 2200 ± 100 ng·h/mL
Cmax [5, 20]: 600 ± 100 ng/mL
Tmax [5, 20]: 0.25 h

CCCCCCCCOc1c(O)c2ccc(OCCO)cc2oc1=O [Compound 451]
Bleeding time [2, 6]: 7.8 min
Bleeding time [2, 7]: 7.5 min
Half-life, pH 3.4 solution [3]: >>100 hr
Half-life, pH 7.3 solution [3]: >>100 hr
Cmax (maximum plasma concentration) [5]: 25100 ± 13300 ng/mL
Tmax (time required to reach the maximum plasma concentration) [5]: 0.3 ± 0.1 h
plasma concentration, Mean, time point 0.25 h ([5]; 0.25 h): 23600 ng/mL
plasma concentration, Mean, time point 0.5 h ([5]; 0.5 h): 23600 ng/mL
plasma concentration, Mean, time point 1.0 h ([5]; 1.0 h): 17900 ng/mL
plasma concentration, Mean, time point 2.0 h ([5]; 2.0 h): 11800 ng/mL
plasma concentration, Mean, time point 4.0 h ([5]; 4.0 h): 9200 ng/mL
plasma concentration, Mean, time point 6.0 h ([5]; 6.0 h): 6800 ng/mL
plasma concentration, Mean, time point 8.0 h ([5]; 8.0 h): 3000 ng/mL
plasma concentration, Mean, time point 12.0 h ([5]; 12.0 h): 1200 ng/mL
plasma concentration, Mean, time point 24.0 h ([5]; 24.0 h): 500 ng/mL
AUC (area under the plasma concentration-time curve) ([5]; from administration to 24 hours): 99500 ± 64400 ng·h/mL
Lesion Index after 10 days [4, 8]: 7.2
Lesion Index after 3 days [4, 9]: 2.6

CCCCCCOc1c(O)c2ccc(OCCO)cc2oc1=O [Compound 445]
Bleeding time [2, 6]: 9.1 min
Bleeding time [2, 7]: 8.3 min
Lesion Index after 10 days [4, 8]: 7.5
Lesion Index after 3 days [4, 9]: 2.7

Clc1ccccc1CN1CCc2sccc2C1 [ticlopidine hydrochloride, reference compound]
Bleeding time ([1]; 300 mg/kg, 180 min): 36.1 min
Lesion Index after 3 days ([4]; positive control, 300 mg/kg orally 3 hours prior to lauric-acid injection, 3 days after injection): 2.8
Lesion Index after 10 days ([4]; positive control, 300 mg/kg orally 3 hours prior to lauric-acid injection, 10 days after injection): 7.4
